Assay results from US20080293758A1, “Combination of a Steroid Sulfatase Inhibitor and an Ascomycin” (Novartis AG, priority 2005, published 2008).
“And” between values parts separate entries of the source, which are not always exact repeats. Equal entries are not always repeated.

Legend:
[1] = molecular target: T1, purified human steroid sulfatase (Homo sapiens, UniProt P08842); assay: Assay of Human Steroid Sulfatase (4-methylumbelliferyl sulfate cleavage); assay type: biochemical; settings: reference compound, determined in parallel
T1 construct: Human placenta is obtained freshly after delivery and stripped of membranes and connective tissues; from tissue; host or cells: human placenta (microsomes, Triton X-100 extract, hydroxy apatite / concanavalin A sepharose / blue sepharose chromatography)
T1 sequence (P08842 22-583): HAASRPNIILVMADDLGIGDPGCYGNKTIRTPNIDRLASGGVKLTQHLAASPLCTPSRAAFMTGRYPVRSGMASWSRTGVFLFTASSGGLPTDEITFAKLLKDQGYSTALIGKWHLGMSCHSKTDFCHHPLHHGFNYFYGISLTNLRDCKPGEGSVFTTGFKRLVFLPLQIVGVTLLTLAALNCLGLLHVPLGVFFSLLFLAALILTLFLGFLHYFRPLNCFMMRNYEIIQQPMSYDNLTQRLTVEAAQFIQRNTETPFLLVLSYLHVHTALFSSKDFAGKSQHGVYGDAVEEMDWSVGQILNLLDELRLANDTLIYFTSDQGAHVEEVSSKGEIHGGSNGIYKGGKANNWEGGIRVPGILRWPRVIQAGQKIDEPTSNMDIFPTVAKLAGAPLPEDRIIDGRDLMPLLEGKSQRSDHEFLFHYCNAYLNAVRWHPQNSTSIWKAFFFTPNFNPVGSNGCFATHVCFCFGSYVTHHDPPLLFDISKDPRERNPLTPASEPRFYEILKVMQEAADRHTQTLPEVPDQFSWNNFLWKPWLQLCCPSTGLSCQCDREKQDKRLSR
Protocol: For storage, the material is frozen at −70° C.
The activity is recovered in the flow-through.
Plates are incubated at 37° C. for 1 hour.
Relative IC50 values are defined as follows: […]

[2] = molecular target: T2, steroid sulfatase in human cadaver skin homogenate (Homo sapiens, UniProt P08842); assay: Assay Using Human Skin Homogenate (DHEAS cleavage); assay type: biochemical; settings: 18 hrs at 37° C.
T2 construct: Frozen specimens of human cadaver skin (about 100 mg per sample) are minced into small pieces; from tissue; host or cells: human cadaver skin, minced and suspended in Tris buffer with 0.1% Triton X-100
T2 sequence (P08842 22-583): T1 sequence (P08842 22-583)
Protocol: Frozen specimens of human cadaver skin (about 100 mg per sample) are minced into small pieces (about 1×1 mm) using sharp scissors. The pieces obtained are suspended in ten volumes (w/w) of buffer (20 mM Tris-HCl, pH 7.5), containing 0.1% Triton X-100. Test compounds (e.g. compounds of the present invention) are added at graded concentrations from stock solutions in ethanol or DMSO. Second, DHEAS as the substrate is added ([…] [^3H]DHEAS, specific activity: about 60 Ci/mmol, and 20 μM unlabeled DHEAS). Samples are incubated for 18 hrs at 37° C. At the end of the incubation period, 50 μl of 1 M Tris, pH 10.4 and 3 ml of toluene are added. A 1-ml aliquot of the organic phase is removed and subjected to liquid scintillation counting. The determined dpm-values in the aliquots are converted to nmol of DHEA cleaved per g of skin per hour.

[3] = test system: irritant contact dermatitis elicited with tetradecanoylphorbol-13-acetate (TPA) on mouse ears; assay: Anti-Inflammatory Test System (TPA-elicited irritant contact dermatitis, auricular weights); assay type: in vivo, mice, strain NMRI; settings: topical 10 μl, 6 hours after TPA
Protocol: The test sites on the inner surface of the right external ears of mice, e.g. strain NMRI, (8 per group) are treated with 10 μl of the dissolved test compound or with the vehicle (a 4:4:2 mixture of ethanol/acetone/dimethylacetamide) alone. The test compounds are applied alone or in combination at concentrations shown in the TEST RESULT TABLE. Thirty minutes after the treatment irritant contact dermatitis is elicitated at the treated auricular sites with 10 μl 0.005% tetradecanoylphorbol-13-acetate (TPA).
Skin inflammation is assessed 6 hours after the elicitation by determination of the auricular weights, as a measure of inflammatory swelling. The animals are killed and both ears are cut off and weighed. Inhibitory activity of test compounds is calculated from differences in right and left ears (internal controls) in mice treated with the test compounds compared with animals treated with the vehicle only. Results obtained are as set out in TEST RESULT TABLE below:
In the TEST RESULT TABLE the concentrations of the compounds (in bold) used are indicated in micromol/litre. The values given in the TEST RESULT TABLE (in regular letters) are the inhibition in % determined according to the ANTI-INFLAMMATORY TEST SYSTEM used.

Compound	IC50 [2]	also measured
C[C@]12CC[C@@H]3c4ccc(OS(N)(=O)=O)cc4CC[C@H]3[C@@H]1CCC2=O [estrone sulfamate, estrone 3-O-sulfamate]		IC50 [1]: ~0.06 µM
CC(C)(C)OC(=O)N1CC2CCCCC(C1)C2C(=O)NS(=O)(=O)c1cc(C(F)(F)F)cc(C(F)(F)F)c1 (centres unmarked) [Example 218]	0.03 to 0.27 µM and 0.27 µM	
O=C(NS(=O)(=O)c1cc(C(F)(F)F)cc(C(F)(F)F)c1)C1C2CCCCC1CN(C(=O)CC1CCCC1)C2 (centres unmarked) [Example 208]	0.03 to 0.27 µM	
CC[C@@H]1/C=C(\C)C[C@H](C)C[C@H](OC)[C@H]2O[C@@](O)(C(=O)C(=O)N3CCCC[C@H]3C(=O)O[C@H](/C(C)=C/[C@@H]3CC[C@H](Cl)[C@H](OC)C3)[C@H](C)[C@@H](O)CC1=O)[C@H](C)C[C@@H]2OC [pimecrolimus, {[1E-(1R,3R,4S)]1R,9S,12S,13R,14S,17R,18E,21S,23S,24R,25S,27R}-12-[2-(4-chloro-3-methoxycyclohexyl)-1-methylvinyl]-17-ethyl-1,14-dihydroxy-23,25-dimethoxy-13,19,21,27-tetramethyl-11,28,dioxa-4-azatricyclo[22.3.1.0(4,9)]octacos-18-ene-2,3,10,16-tetraone]		inhibition in % ([3]; pimecrolimus 0.1, example 217 or 218 0 micromol/litre): 15%; inhibition in % ([3]; pimecrolimus 0.3, example 217 or 218 0 micromol/litre): 29%; inhibition in % ([3]; pimecrolimus 1.0, example 217 or 218 0 micromol/litre): 30%; inhibition in % ([3]; pimecrolimus 3.0, example 217 or 218 0 micromol/litre): 31%; inhibition in % ([3]; pimecrolimus 10, example 217 or 218 0 micromol/litre): 42%

More lines, main results first:

IC50 [2]	Compound	also measured
0.03 to 0.27 µM	NC(=O)c1ccc(C(F)(F)F)cc1N1CCC(CC(=O)NS(=O)(=O)c2cc(Cl)cc(Cl)c2)CC1 [Example 249]	
0.03 to 0.27 µM	NC(=O)c1ccc(C(F)(F)F)cc1N1CCC(CC(=O)NS(=O)(=O)c2cccc(Cl)c2Cl)CC1 [Example 248]	
0.03 to 0.27 µM	NC(=O)c1ccc(C(F)(F)F)cc1N1CCC(CS(=O)(=O)NC(=O)c2cc(C(F)(F)F)cc(C(F)(F)F)c2)CC1 [Example 379]	melting point: 268 to 273 °C
0.03 to 0.27 µM	Cc1c(Cl)cccc1S(=O)(=O)NC(=O)CC1CCN(c2cc(C(F)(F)F)ccc2C(N)=O)CC1 [Example 251]	
0.03 to 0.27 µM and 0.27 µM	CC(C)(C)OC(=O)N1CC2CCCCC(C1)C2C(=O)NS(=O)(=O)c1cc(C(F)(F)F)cc(C(F)(F)F)c1 (single isomer, unassigned) [Example 217, 10-(3,5-bis-trifluoromethyl-benzenesulfonylaminocarbonyl)-8-aza-bicyclo[4.3.1]decane-8-carboxylic acid tert-butyl ester]	
